Results on 17 compounds are retold here after patent publication US8039496B2, “Therapeutic compounds” (Allergan, Inc., priority 2007, dated 2011).

SMILES strings stand for the structures. pEC50, pKi: −log10 of the molar value. Read-outs that look alike come from different tables or passages of the source.

The target in data set [1] is T1, hEP2 (Homo sapiens, UniProt P43116). Nature of the data set: hEP2 flipr functional assay. The format is cell-based. From the text:
(§1) U.S. patent application Ser. No. 11/553,143, filed on Oct. 26, 2006, describes the methods used to obtain the in vitro data in the table below.

Data set [2] has as its target T2, hEP4 (Homo sapiens, UniProt P35408). The experiment in a line: hEP4 flipr functional assay. It counts as cell-based.
Source text: as §1

The target of data set [3] is T2, hEP4. The experiment in a line: hEP4 binding (Ki).
Source text: as §1

For data set [4], the target named is T1, hEP2. The experiment in a line: hEP2 binding (Ki).
Source text: as §1

Data set [5] has as its target T1, hEP2. The experiment in a line: hEP2 cAMP functional assay. The format is cell-based.
Source text: as §1

For data set [6], the system named is normotensive dogs. Nature of the data set: Ocular surface hyperemia in normotensive dogs. Particulars: once daily for 5 days. It counts as in vivo. Also on record: scale not given here. As to the method: (§2) U.S. Pat. No. 7,091,231 describes the methods used for these in vivo tests. 5-{3-[1R,2S,3R,5R)-5-Chloro-2-(3,5-dichloro-phenoxymethyl)-3-hydroxy-cyclopentyl]-propyl}-thiophene-2-carboxylic acid was tested at multiple concentrations in normotensive dogs, dosing once daily for 5 days. At 0.1%, the maximum intraocular pressure (IOP) decrease from baseline was 7.5 mmHg (48%) at 30 h; the maximum ocular surface hyperemia (OSH) score was 2.75 at 26 h. At 0.01%, the maximum IOP decrease from baseline was 7.5 mmHg (43%) at 76 h; the maximum OSH score was 2.0 at 26 h. At 0.005%, the maximum IOP decrease from baseline was 6.6 mmHg (35%) at 78 h; the maximum OSH score was 1.75 at 74 h. This compound was also tested in laser-induced hypertensive monkeys, using one single day dose. At 0.01%, the maximum IOP decrease from baseline was 20.2 mmHg (53%) at 24 h.

The subject of data set [7] is normotensive dogs. Nature of the data set: Intraocular pressure in normotensive dogs. The format is in vivo. Particulars: Canis lupus familiaris, topical, 120 h, once daily for 5 days, read-out: maximum IOP decrease from baseline (percent). On the procedure: as §2
Where [8] appears, read: the 3rd table, read-out: EP2 data flipr EC50.
Setting [9] is: the 3rd table, read-out: EP4 data flipr EC50.
The mark [10] stands for this setting: the 3rd table, read-out: EP4 data KI.
Setting [11] is: the 3rd table, read-out: EP2 data Ki.
[12] abbreviates: the 3rd table, read-out: EP2 data cAMP EC50.
[13] abbreviates: the 2nd table, read-out: hEP2 flipr EC50.
Setting [14] is: the 2nd table, read-out: hEP4 flipr EC50.
Setting [15] is: the 2nd table, read-out: hEP4 Ki.
[16] abbreviates: the 2nd table, read-out: hEP2 Ki.
Setting [17] is: the 2nd table, read-out: hEP2 cAMP EC50.

T2 sequence (P35408 whole entry): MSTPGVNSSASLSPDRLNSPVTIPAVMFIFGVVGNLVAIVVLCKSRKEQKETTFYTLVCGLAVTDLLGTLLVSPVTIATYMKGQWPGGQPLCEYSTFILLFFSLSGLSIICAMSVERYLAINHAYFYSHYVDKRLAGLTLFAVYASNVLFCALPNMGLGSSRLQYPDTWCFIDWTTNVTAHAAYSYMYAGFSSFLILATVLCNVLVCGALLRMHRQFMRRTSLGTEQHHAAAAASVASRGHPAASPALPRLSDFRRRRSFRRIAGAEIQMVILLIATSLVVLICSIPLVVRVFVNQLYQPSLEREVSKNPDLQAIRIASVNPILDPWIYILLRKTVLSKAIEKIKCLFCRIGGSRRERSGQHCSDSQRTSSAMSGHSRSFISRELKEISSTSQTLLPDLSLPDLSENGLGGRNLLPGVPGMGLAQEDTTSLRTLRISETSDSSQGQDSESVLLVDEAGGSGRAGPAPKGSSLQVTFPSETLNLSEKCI
T1 sequence (P43116 whole entry): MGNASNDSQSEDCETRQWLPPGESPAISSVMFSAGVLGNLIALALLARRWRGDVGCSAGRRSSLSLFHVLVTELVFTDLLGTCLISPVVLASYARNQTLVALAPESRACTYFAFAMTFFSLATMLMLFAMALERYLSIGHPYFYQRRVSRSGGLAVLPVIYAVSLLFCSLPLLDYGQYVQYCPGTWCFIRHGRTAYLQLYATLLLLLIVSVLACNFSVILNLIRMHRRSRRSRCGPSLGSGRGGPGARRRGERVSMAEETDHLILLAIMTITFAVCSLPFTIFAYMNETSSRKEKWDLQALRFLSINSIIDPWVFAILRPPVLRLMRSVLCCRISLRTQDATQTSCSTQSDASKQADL

On to `CCc1cc(OC[C@@H]2[C@@H](CCCc3ccc(C(=O)O)s3)[C@H](Cl)C[C@H]2O)ccc1Cl` [5-(3-((1R,2S,3R,5R)-5-chloro-2-((4-chloro-3-ethylphenoxy)methyl)-3-hydroxycyclopentyl)propyl)thiophene-2-carboxylic acid], for which the negative-log EC50 (pEC50) at hEP2 [1] (setting [8]) is 4.50; on hEP4 [2] (setting [9]), 4.58; on hEP2 [5] (setting [12]), 9.40. Further, the pKi at hEP4 [3] (setting [10]) is 6.75; at hEP2 [4] (setting [11]), 8.70.
Regarding `CCCCCCCc1ccc(OC[C@@H]2[C@@H](CCCc3ccc(C(=O)O)s3)[C@H](Cl)C[C@H]2O)cc1` [5-(3-((1R,2S,3R,5R)-5-chloro-2-((4-heptylphenoxy)methyl)-3-hydroxycyclopentyl)propyl)thiophene-2-carboxylic acid], the pEC50 at hEP2 [1] (setting [8]) is 5.17; at hEP4 [2] (setting [9]), < 5.00; at hEP2 [5] (setting [12]) it was 7.34. Also, the negative logarithm of the Ki (pKi) on hEP4 [3] (setting [10]) was 5.34; on hEP2 [4] (setting [11]), 6.42.
Turning to `O=C(O)c1ccc(CCC[C@@H]2[C@@H](COc3ccc4c(c3)CCCC4)[C@H](O)C[C@H]2Cl)s1` [5-(3-((1R,2S,3R,5R)-5-chloro-3-hydroxy-2-((5,6,7,8-tetrahydronaphthalen-2-yloxy)methyl)cyclopentyl)propyl)thiophene-2-carboxylic acid], the pEC50 on hEP2 [1] (setting [8]) is 5.60; on hEP4 [2] (setting [9]), < 5.00; at hEP2 [5] (setting [12]) it was 7.92. Moreover, the values for the pKi at hEP4 [3] (setting [10]) and at hEP2 [4] (setting [11]) were 6.10 and 7.42, respectively.
Turning to `O=C(O)c1ccc(CCC[C@@H]2[C@@H](COc3ccc4ccccc4c3)[C@H](O)C[C@H]2Cl)s1` [5-(3-((1R,2S,3R,5R)-5-chloro-3-hydroxy-2-((naphthalen-2-yloxy)methyl)cyclopentyl)propyl)thiophene-2-carboxylic acid], the pEC50 on hEP2 [1] (setting [8]) was < 5.00; on hEP4 [2] (setting [9]), < 5.00; at hEP2 [5] (setting [12]) it was 8.52. The results for the negative-log Ki (pKi) at hEP4 [3] (setting [10]) and at hEP2 [4] (setting [11]) were 6.64 and 8.52, respectively.
In the case of `O=C(O)c1ccc(CCC[C@@H]2[C@@H](COc3cc(Cl)cc(CO)c3)CC[C@H]2Cl)s1` [5-{3-[(1R,2R,5S)-2-Chloro-5-(3-chloro-5-hydroxymethyl-phenoxymethyl)-cyclopentyl]-propyl}-thiophene-2-carboxylic acid], the negative-log EC50 (pEC50) at hEP2 [1] (setting [13]) is 5.17; at hEP4 [2] (setting [14]), < 5.00; at hEP2 [5] (setting [17]), 8.28. Also, the results for the pKi at hEP4 [3] (setting [15]) and on hEP2 [4] (setting [16]) were 6.71 and 7.92, respectively.
For `O=C(O)c1ccc(CCC[C@H]2C(=O)CC[C@@H]2COc2cc(Cl)cc(CO)c2)s1` [5-{3-[(1R,2S)-2-(3-Chloro-5-hydroxymethyl-phenoxymethyl)-5-oxo-cyclopentyl]-propyl}-thiophene-2-carboxylic acid] the same measures were 6.53, < 5.00, 8.70, 6.75 and 7.41.
For `O=C(O)c1ccc(CCC[C@@H]2[C@@H](COc3cc(Cl)cc(Cl)c3)[C@H](O)C[C@H]2F)s1` [5-{3-[(1R,2S,3R,5R)-2-(3,5-Dichloro-phenoxymethyl)-5-fluoro-3-hydroxy-cyclopentyl]-propyl}-thiophene-2-carboxylic acid], the pEC50 at hEP2 [1] (setting [13]) was 7.08; on hEP4 [2] (setting [14]), < 5.00; at hEP2 [5] (setting [17]) it was 9.15. For the same compound, the pKi was 6.51 at hEP4 [3] (setting [15]) and 8.10 on hEP2 [4] (setting [16]).
For `O=C(O)CCC/C=C\C[C@@H]1[C@@H](COc2cc(Cl)cc(Cl)c2)[C@H](O)C[C@H]1Cl` [(Z)-7-[(1R,2S,3R,5R)-5-Chloro-2-(3,5-dichloro-phenoxymethyl)-3-hydroxy-cyclopentyl]-hept-5-enoic acid], the “maximum ocular surface hyperemia (OSH) score” value was 0.6 in the data set on normotensive dogs [6] (0.05%) and 1.3 in the data set on normotensive dogs [6] (0.1%).
In the case of `CC(=O)OCCc1cc(Cl)cc(OC[C@@H]2[C@@H](C/C=C\CCCC(=O)O)[C@H](Cl)C[C@H]2O)c1` [(Z)-7-{(1R,2S,3R,5R)-2-[3-(2-Acetoxy-ethyl)-5-chloro-phenoxymethyl]-5-chloro-3-hydroxy-cyclopentyl}-hept-5-enoic acid], the values for the pEC50 on hEP2 [1] (setting [13]) and at hEP2 [5] (setting [17]) were 5.30 and 7.74, respectively. Moreover, the pKi at hEP2 [4] (setting [16]) is 7.09.
As to `O=C(O)c1ccc(CCC[C@@H]2[C@@H](COc3cc(Cl)cc(CO)c3)[C@H](O)C[C@H]2Cl)s1` [Example 5, 5-{3-[(1R,2S,3R,5R)-5-Chloro-2-(3-chloro-5-hydroxymethyl-phenoxymethyl)-3-hydroxy-cyclopentyl]-propyl}-thiophene-2-carboxylic acid], the inhibition in vivo at 0.1 % in the data set with normotensive dogs [7] was found to be 34%. Besides, the “maximum ocular surface hyperemia (OSH) score” value in the data set with normotensive dogs [6] (0.1%) worked out at 1.9.
For the compound `Cc1cc(C)cc(OC[C@@H]2[C@@H](CCCc3ccc(C(=O)O)s3)[C@H](Cl)C[C@H]2O)c1` [Example 6, 5-{3-[(1R,2S,3R,5R)-5-Chloro-2-(3,5-dimethyl-phenoxymethyl)-3-hydroxy-cyclopentyl]-propyl}-thiophene-2-carboxylic acid], the inhibition in vivo at 0.01 % in the data set on normotensive dogs [7] was found to be 33%. Moreover, the “maximum ocular surface hyperemia (OSH) score” value with normotensive dogs [6] (0.01%) stood at 1.9.
On the same counts, the results for `N#C[C@@H]1C[C@@H](O)[C@H](COc2cc(Cl)cc(Cl)c2)[C@H]1CCCc1ccc(C(=O)O)s1` [Example 9, 5-{3-[(1S,2S,3R,5R)-5-Cyano-2-(3,5-dichloro-phenoxymethyl)-3-hydroxy-cyclopentyl]-propyl}-thiophene-2-carboxylic acid] are 17% and 1.2.
Take `CC(C)OC(=O)c1ccc(CCC[C@@H]2[C@@H](COc3cc(Cl)cc(CO)c3)[C@H](O)C[C@H]2Cl)s1` [Example 14, Isopropyl 5-{3-[(1R,2S,3R,5R)-5-Chloro-2-(3-chloro-5-hydroxymethyl-phenoxymethyl)-3-hydroxy-cyclopentyl]-propyl}-thiophene-2-carboxylate]: the inhibition in vivo at 0.1 % in the data set on normotensive dogs [7] turned out to be 36%. Moreover, in the data set on normotensive dogs [6] (0.1%), the “maximum ocular surface hyperemia (OSH) score” value turned out to be 1.9.
For the compound `O=C(O)c1ccc(CCC[C@@H]2[C@@H](COc3cc(Cl)cc(Cl)c3)[C@H](O)C[C@H]2Cl)s1` [drawing 35, 5-{3-[(1R,2S,3R,5R)-5-Chloro-2-(3,5-dichloro-phenoxymethyl)-3-hydroxy-cyclopentyl]-propyl}-thiophene-2-carboxylic acid], the pEC50 at hEP2 [1] (setting [13]) is 5.15; at hEP4 [2] (setting [14]) it was < 5.00; on hEP2 [5] (setting [17]), 9.92. The values for the pKi on hEP4 [3] (setting [15]) and at hEP2 [4] (setting [16]) were 6.44 and 8.70, respectively.
Regarding `O=C(O)c1ccc(CCC[C@@H]2[C@@H](COc3cc(Cl)cc(CO)c3)[C@H](O)C[C@H]2Cl)s1` [drawing 36, 5-{3-[(1R,2S,3R,5R)-5-Chloro-2-(3-chloro-5-hydroxymethyl-phenoxymethyl)-3-hydroxy-cyclopentyl]-propyl}-thiophene-2-carboxylic acid], the pEC50 was 5.48 on hEP2 [1] (setting [13]), < 5.00 at hEP4 [2] (setting [14]) and 9.59 at hEP2 [5] (setting [17]). Further, the pKi at hEP2 [4] (setting [16]) is 8.52.
On to `Cc1cc(C)cc(OC[C@@H]2[C@@H](CCCc3ccc(C(=O)O)s3)[C@H](Cl)C[C@H]2O)c1` [drawing 37, 5-{3-[(1R,2S,3R,5R)-5-Chloro-2-(3,5-dimethyl-phenoxymethyl)-3-hydroxy-cyclopentyl]-propyl}-thiophene-2-carboxylic acid], for which the pEC50 on hEP2 [1] (setting [13]) was 7.51; at hEP4 [2] (setting [14]), 5.53; at hEP2 [5] (setting [17]), 9.70. For the same compound, the negative-log Ki (pKi) was 6.80 at hEP4 [3] (setting [15]) and 8.70 on hEP2 [4] (setting [16]).
Turning to `N#C[C@@H]1C[C@@H](O)[C@H](COc2cc(Cl)cc(Cl)c2)[C@H]1CCCc1ccc(C(=O)O)s1` [drawing 40, 5-{3-[(1S,2S,3R,5R)-5-Cyano-2-(3,5-dichloro-phenoxymethyl)-3-hydroxy-cyclopentyl]-propyl}-thiophene-2-carboxylic acid], the pEC50 at hEP2 [1] (setting [13]) is 7.82; on hEP4 [2] (setting [14]), < 5.00; at hEP2 [5] (setting [17]), 9.70. Also, the pKi at hEP4 [3] (setting [15]) is 6.83; at hEP2 [4] (setting [16]), 8.52.

For orientation: pEC50 means the EC50 on a negative log10 scale, so that one unit is a factor of ten. The term pKi denotes the negative decadic logarithm of the Ki, by convention in mol/L.
